Experiment: in vitro
Conditions: human, hela cells, % viability

| Structure (SMILES) | viability at 28.5 h, 10 µM |
| --- | --- |
| O=C(CSc1nnc(-c2ccncc2)n1-c1ccccc1)N/N=C/c1ccco1 [CBK262828] | 94.4% |
| CCOc1cccc(N2C(=O)CC(N3CCN(c4ccccn4)CC3)C2=O)c1 (stereo not shown) [CBK262829] | 105% |
| O=C(O)c1ccc(CN2C(=O)c3ccc(C(=O)c4ccc(C(=O)O)cc4)cc3C2=O)cc1 [CBK262831] | 102% |
| CC1=CC(C)C(CNCCN2CCNCC2)C(C)C1 (stereo not shown) [CBK262832] | 90% |
| COc1ccc(N2C(=O)c3ccc(C(=O)Nc4ccccc4C(=O)O)cc3C2=O)cc1O [CBK262833] | 97.8% |
| O=C(O)CCCCCN1C(=O)/C(=C/c2ccc(O)cc2)SC1=S [CBK262835] | 87.6% |
| Nc1ccc(-c2nc3cc(C(=O)c4ccc5[nH]c(-c6ccc(N)cc6)nc5c4)ccc3[nH]2)cc1 [CBK262848] | 99.7% |
| CN1CCN(CCC(=O)N/N=C/c2ccc(O)cc2O)CC1 [CBK262849] | 94.2% |
| O=C(CSc1ncn[nH]1)N/N=C/c1cn(-c2ccccc2)nc1-c1ccccc1 [CBK262850] | 101% |
| O=C(O)CCCN1C(=O)/C(=C/c2ccc(O)c(O)c2)SC1=S [CBK262852] | 84.9% |
| O=C(NC(C(=O)N/N=C/c1cccc(O)c1)c1n[nH]c(=O)c2ccccc12)c1ccccc1 (stereo not shown) [CBK262853] | 89% |
| Cc1cc2nc(-c3cc(NC(=O)c4cccc([N+](=O)[O-])c4)ccc3O)oc2cc1C [CBK262855] | 103% |
| COC(=O)c1ccc(N2C(=O)CC(NCCc3ccc(S(N)(=O)=O)cc3)C2=O)cc1 (stereo not shown) [CBK262859] | 99.9% |
| Cc1ccc(S(=O)(=O)NCC(c2ccccc2)N2CCN(CCC#N)CC2)cc1 (stereo not shown) [CBK262865] | 97.4% |
| O=C(O)c1ccc(S(=O)(=O)c2ccc3c(c2)C(=O)N(c2ccc(Sc4ccc([N+](=O)[O-])cc4)cc2)C3=O)cc1 [CBK262869] | 104% |
| CC(CCc1ccccc1)NC1CCCc2c1[nH]c1ccc([N+](=O)[O-])cc21 (stereo not shown) [CBK262875] | 73.2% |
| COc1ccc(CCC(C)NC2CCCc3c2[nH]c2ccc([N+](=O)[O-])cc32)cc1 (stereo not shown) [CBK262876] | 71.6% |
| CC(NC1CCN(Cc2ccccc2)CC1)C12CC3CC(CC(c4ccc(Cl)cc4)(C3)C1)C2 (stereo not shown) [CBK262877] | 90.1% |
| CC1C2CCCN2CCN1Cc1cccc(Oc2ccccc2)c1 (stereo not shown) [CBK262880] | 94.9% |
| Cc1cc(C)nc(SCC(=O)N/N=C2/C(=O)Nc3ccccc32)n1 [CBK262883] | 108% |
| COc1ccc(-c2cc(C(=O)N/N=C/c3c(C)[nH]c4ccccc34)[nH]n2)cc1 [CBK262884] | 55.7% |

| Structure (SMILES) | viability at 28.5 h, 10 µM |
| --- | --- |
| O=C(N/N=C/c1ccccn1)c1cc(-c2ccc3ccccc3c2)[nH]n1 [CBK262886] | 93.9% |
| CCOc1ccc(-c2n[nH]c(C(=O)N/N=C3/C(=O)Nc4ccccc43)c2C)cc1 [CBK262889] | 99.6% |
| CC(NCc1ccncc1)=C1C(=O)c2ccccc2C1=O [CBK262890] | 105% |
| N#C/C(=C/c1c[nH]c2ccccc12)c1n[nH]c(N)c1C#N [CBK262893] | 70.4% |
| N=c1n(CC(=O)O)c2ccccc2n1Cc1ccc(Cl)cc1 [CBK262897B] | 89.5% |
| c1ccc(-c2oc3ncn4nc(COc5cccc6ccccc56)nc4c3c2-c2ccccc2)cc1 [CBK262898] | 99.9% |
| Cc1cc(=O)n2ccc(CN3CCOCC3)c(O)c2n1 [CBK262899C] | 114% |
| Cc1n[nH]c(C)c1CCC(=O)N/N=C/c1ccc(Cl)cc1Cl [CBK262901] | 86.6% |
| CN(C)c1ccc(/C=N/NC(=O)CCn2c3ccccc3c3cc(I)ccc32)cc1 [CBK262902] | 84.5% |
| NC(CC(=O)O)c1cccc([N+](=O)[O-])c1 (stereo not shown) [CBK262903C] | 96.9% |
| O=C(Cn1c(NCCCO)nc2ccccc21)c1ccc(Cl)c(Cl)c1 [CBK262905B] | 94.1% |
| CCn1c(=N)n(CC(=O)O)c2ccccc21 [CBK262906B] | 94% |
| O=C1/C(=C/NCc2cccnc2)C(c2ccccc2)=NN1c1ccc([N+](=O)[O-])cc1 [CBK262911] | 97.6% |
| CC1(C)OC2C(C(=O)O)OC(n3cnc4c(N)ncnc43)C2O1 (stereo not shown) [CBK262912] | 96.2% |
| CCN(CC)CCn1c(=N)n(CC(O)c2ccc(C)cc2)c2ccccc21 (stereo not shown) [CBK262914C] | 104% |
| CCCCOc1ccc(C(N)CC(=O)O)cc1 (stereo not shown) [CBK262915] | 86.8% |
| O=C(O)COc1ccccc1/C=N\N1CCN(c2ccccn2)CC1 [CBK262916] | 95.9% |
| CC(=O)C1=C(O)C(=O)N(CC(=O)O)C1c1cccc([N+](=O)[O-])c1 (stereo not shown) [CBK262921] | 97.4% |
| Nc1ncnc2c1ncn2C1OC(C(=O)O)C(O)C1O (stereo not shown) [CBK262922] | 99.9% |
| c1ccc2sc(SCc3nc4c5c6c(sc5ncn4n3)CCCC6)nc2c1 [CBK262923] | 92.5% |
| O=C(O)CCCN1C(=O)C(O)=C(C(=O)c2ccccc2)C1c1ccccc1 (stereo not shown) [CBK262924] | 93.3% |

| Structure (SMILES) | viability at 28.5 h, 10 µM |
| --- | --- |
| COc1cc(/C=N/NC(=O)CCc2c(C)n[nH]c2C)ccc1O [CBK262925] | 90.1% |
| Cn1c(=N)n(CC(=O)O)c2ccccc21 [CBK262926B] | 90.4% |
| Cc1n[nH]c(C)c1CCC(=O)N/N=C/c1ccc(O)cc1 [CBK262927] | 109% |
| O=C(O)CC1OC(=O)c2cc3c(cc21)C(=O)OC3CC(=O)O (stereo not shown) [CBK262928] | 100% |
| COc1ccc(C(O)Cn2c(=N)n(CCN3CCCCC3)c3ccccc32)cc1 (stereo not shown) [CBK262930C] | 98.8% |
| CCOc1ccc(C(N)CC(=O)O)cc1 (stereo not shown) [CBK262933C] | 82.4% |
| C/C(=N\NC(=O)CCc1c(C)n[nH]c1C)c1ccc(N)cc1 [CBK262935] | 97.7% |
| Nc1ccc(-c2ncccc2O)cc1 [CBK262937C] | 106% |
| N#Cc1c(NC(=O)COc2ccc(Cl)cc2)oc(-c2ccccc2)c1-c1ccccc1 [CBK262938] | 91.5% |
| CCNC(=S)N(CCc1ccccc1)C1CC(=O)N(c2ccc(F)cc2)C1=O (stereo not shown) [CBK262941] | 87.6% |
| Cn1c(=O)c2c(nc(SCC(=O)O)n2C)n(C)c1=O [CBK262942] | 88.3% |
| O=C(COc1ccc(Cl)cc1Br)NNC(=O)c1ccccc1O [CBK262943] | 97.8% |
| O=C(Nc1ccc2oc(-c3cccnc3)nc2c1)c1ccc(-c2cccc([N+](=O)[O-])c2)o1 [CBK262945] | 106% |
| Cc1ccc2nc(C)c(CCC(=O)O)c(O)c2c1 [CBK262946] | 91.8% |
| Cc1ccc(NC(=O)c2ccc(-c3cccc([N+](=O)[O-])c3)o2)cc1-c1nc2ncccc2o1 [CBK262947] | 89.7% |
| Cc1cc(C(=O)Nc2cccc(-c3nc4cc(Cl)ccc4o3)c2C)ccc1[N+](=O)[O-] [CBK262949] | 91.8% |
| CC1(C)CC(NC(=O)c2cccc([N+](=O)[O-])c2)CC(C)(C)N1 [CBK262952C] | 99.8% |
| CCOc1cc(/C=C2\SC(=N)NC2=O)cc(Cl)c1O [CBK262955] | 84.4% |
| COc1ccc(/C=C(\C#N)c2nc3ccccc3n2Cc2c(C)ccc3ccccc23)cc1 [CBK262960] | 119% |
| NC(=O)c1ccc(NC(=O)COc2ccccc2Cl)cc1 [CBK262961] | 109% |
| CC(=O)Nc1ccc(S(=O)(=O)Oc2ccc(C3C4=C(CC(C)(C)CC4=O)N=C4c5ccccc5C(=O)C43)cc2)cc1 (stereo not shown) [CBK262964] | 93.7% |

| Structure (SMILES) | viability at 28.5 h, 10 µM |
| --- | --- |
| N#C/C(=C\c1ccc(-c2ccc3c(c2)C(=O)NC3=O)o1)c1nc2ccccc2[nH]1 [CBK262965] | 94.4% |
| CC1CC(N(C(=O)c2cccc(Br)c2)c2ccccc2)c2ccccc2N1 (stereo not shown) [CBK262966] | 96.7% |
| c1ccc2c(OCc3nc4ccccc4[nH]3)cccc2c1 [CBK262969] | 106% |
| COC(=O)Nc1ccc2c(c1)N(C(=O)CCN(C)C)c1ccccc1CC2 [CBK262972C] | 87.2% |
| O=c1c2c3c(sc2n2c(S)nnc2n1Cc1ccccc1)CN(Cc1ccccc1)CC3 [CBK262973] | 95% |
| CCn1c(C(O)c2ccc(OC)c(OC)c2)nc2ccccc21 (stereo not shown) [CBK262974] | 90.1% |
| O=C(Cc1ccccc1)NN1C(=O)/C(=C/c2ccccc2C(=O)O)SC1=S [CBK262975] | 104% |
| COC(=O)CNC(c1ccccc1)c1cc(Br)ccc1NC(C)=O (stereo not shown) [CBK262976] | 119% |
| Cc1ccc(Cn2c(=N)n(CC(=O)c3ccc(Br)cc3)c3ccccc32)cc1 [CBK262979B] | 94% |
| COC(=O)CN1C(CN2CCOCC2)=Nc2ccc(Br)cc2C1c1ccccc1 (stereo not shown) [CBK262981] | 89.8% |
| COc1ccc(OC)c(N/C=C(/C#N)c2nc(-c3cc4c(ccc5ccccc54)oc3=O)cs2)c1 [CBK262991] | 109% |
| COc1ccc(Cl)cc1NC(=O)COc1cccc2ccccc12 [CBK262995] | 94.9% |
| CC(C)(C)c1cc(C(c2ccccc2O)N2CCOCC2)cc(C(C)(C)C)c1O (stereo not shown) [CBK262998] | 86.4% |
| COc1ccc(/C=N/NC(=O)c2ccc(O)cc2O)cc1COc1cc(C)c(Cl)c(C)c1 [CBK263000] | 90.3% |
| N/C(=N\OC(=O)COc1cccc2ccccc12)c1ccc(Cl)cc1 [CBK263004] | 88.4% |
| O=C(COc1cccc2ccccc12)NNC(=O)C1CCCO1 (stereo not shown) [CBK263007] | 89.7% |
| COc1ccccc1CC(=N)NOC(=O)COc1cccc2ccccc12 [CBK263012] | 94.2% |
| COc1ccc(Cl)cc1N/C=C(/C#N)c1nc(-c2cc3cc([N+](=O)[O-])ccc3oc2=O)cs1 [CBK263014] | 102% |
| O=C1C2C3C=CC(C2C(=O)N1CCO)C1C2C(=O)N(CCO)C(=O)C2C31 (stereo not shown) [CBK263016] | 101% |
| CCC(Sc1nc(C)cc(C)n1)C(=O)N1c2ccccc2Sc2ccccc21 (stereo not shown) [CBK263018] | 92.9% |
| O=C(c1cccnc1)N1CCN(Cc2cccc([N+](=O)[O-])c2)CC1 [CBK263020] | 114% |

Same assay, conditions: human, hela cells, % viability, bulk resorufin, single well

| Structure (SMILES) | viability at 28.5 h, 10 µM |
| --- | --- |
| CN1C(=O)C(=CNCCN2CCN(C(=S)Nc3ccccc3)CC2)C(=O)N(C)C1=O [CBK262858] | 97.5% |
